In patent US20020115853A1, “Benzimidazolones and analogues” (priority 1999, published 2002):
Several values for one entry are separate records, joined by “and”; a condition that tells them apart may be missing. Equal entries are not always repeated.

system: not given; assay: not given; conditions: not given

Structure (SMILES)	melting point [°C]
CC(C)N1CC(=O)Nc2ccc(-c3cccc(Cl)c3)cc21 [Compound C4, 6-(3-Chloro-phenyl)-4-isopropyl-3,4-dihydro-1H-quinoxalin-2-one]	146 to 150
Cn1c(=O)[nH]c2ccc(-c3cccc([N+](=O)[O-])c3)cc21 [Compound 4, 1-Methyl-6-(3-nitro-phenyl)-1,3-dihydro-benzoimidazol-2-one]	264 to 265
CC(C)N1CC(=O)Nc2ccc(-c3cc(F)cc(C#N)c3)cc21 [Example 20, 6-(3-Cyano-5-fluorophenyl)-4-isopropyl-3,4-dihydro-1H-quinoxalin-2-one]	238 to 240
CCC1Sc2cc(-c3cccc([N+](=O)[O-])c3)ccc2NC1=O (stereo not drawn) [Compound B2, 2-Ethyl-7-(3-nitro-phenyl)-4H-benzo[1,4]thiazin-3-one]	180
O=C1CSc2cc(-c3cccc([N+](=O)[O-])c3)ccc2N1 [Compound B1, 7-(3-Nitro-phenyl)-4H-benzo[1,4]thiazin-3-one]	290 to 292
Cn1c(=O)[nH]c2ccc(-c3cccc(Cl)c3)cc21 [Compound 3, 6-(3-chloro-phenyl)-1-methyl-1,3-dihydro-benzoimidazol-2-one]	219 to 220
O=c1[nH]c2ccc(-c3cccc([N+](=O)[O-])c3)cc2o1 [Example 11, 6-(3-Nitro-phenyl)-3H-benzooxazol-2-one]	280 to 281
S=c1[nH]c2ccc(-c3cccc(Cl)c3)cc2n1Cc1ccccc1 [Example 24, 1-Benzyl-6-(3-chlorophenyl)-1,3-dihydro-2H-benzimidazole-2-thione]	211 to 212
O=c1[nH]c2ccc(-c3cccc(Cl)c3)cc2n1Cc1ccccc1 [Compound 1, 1-Benzyl-6-(3-chloro-phenyl)-1,3-dihydro-benzoimidazol-2-one]	168 to 169
O=c1[nH]c2ccc(-c3cccc([N+](=O)[O-])c3)cc2[nH]1 [Example 9, 5-(3-Nitro-phenyl)-1,3-dihydro-benzoimidazol-2-one]	324 to 325
CC(C)N1CC(=O)Nc2ccc(-c3ccc(F)c(Cl)c3)cc21 [Compound C5, 6-(3-Chloro-4-fluoro-phenyl)-4-isopropyl-3,4-dihydro-1H-quinoxalin-2-one]	208 to 213
O=c1[nH]c2ccc(-c3cccc([N+](=O)[O-])c3)cc2n1Cc1ccccc1 [Compound 2, 1-Benzyl-6-(3-nitro-phenyl)-1,3-dihydro-benzoimidazol-2-one]	202 to 203
O=c1[nH]c2ccc(-c3cccc(Cl)c3)cc2s1 [Example 13, 6-(3-Chloro-phenyl)-3H-benzothiazol-2-one]	195 to 196
O=c1[nH]c2ccc(-c3cccc([N+](=O)[O-])c3)cc2s1 [Example 12, 6-(3-Nitro-phenyl)-3H-benzothiazol-2-one]	276 to 277

Results, then the molecule that gave them:

melting point [°C]	Structure (SMILES)
182 to 185	O=C1CN(Cc2ccccc2)c2cc(-c3cccc(Cl)c3)ccc2N1 [Example 28, 4-Benzyl-6-(3-chlorophenyl)-3,4-dihydroquinoxalin-2 (1H)-one]
208 to 212	CC(C)OC(=O)N1CC(=S)Nc2ccc(-c3cccc(Cl)c3)cc21 [Example 30, Isopropyl 7-(3-chlorophenyl)-3-thioxo-3,4-dihydroquinoxaline-1(2H)-carboxylate]
237 to 243	CN1CC(=O)Nc2ccc(-c3cccc([N+](=O)[O-])c3)cc21 [Example 26, 6-(3-Nitro-phenyl)-4-methyl-3,4-dihydro-1H-quinoxalin-2-one]
228 to 230	CC1Nc2cc(-c3ccc(Cl)cc3)ccc2NC1=O (stereo not drawn) [Example 27, 6-(4-Chloro-phenyl)-3-methyl-3,4-dihydro-1H-quinoxalin-2-one]
244 to 245	O=[N+]([O-])c1cccc(-c2ccc3[nH]c(=S)n(Cc4ccccc4)c3c2)c1 [Example 25, 1-Benzyl-6-(3-nitrophenyl)-1,3-dihydro-2H-benzimidazole-2-thione]

system: rat uterine decidualization; assay: Rat decidualization assay; format: in vivo; conditions: ovariectomized rats, p.o., with progesterone 5.6 mg/kg
Description: 2. Rat Decidualization Assay
b. Animals (RACUC protocol #5002)
The animals are treated once daily for seven days.
Uteri are removed and trimmed of fat.
S f. Analysis of Results:
Body weight: Mean total animal body weight (default-kg)
Decidual response: [(D-C)/C]×100%

Estimated IC50, decrease in EC50 progesterone induced decidual response	Structure (SMILES)
0.21 mg/kg and 0.14 mg/kg	CC#C[C@]1(O)CC[C@H]2[C@@H]3CCC4=CC(=O)CCC4=C3[C@@H](c3ccc(N(C)C)cc3)C[C@@]21C [RU486]

system: T47D cells; assay: T47D cell proliferation assay (BrdU incorporation); format: cell-based; conditions: Homo sapiens, agonist mode, reference progestins, read-out: Estimated EC50, BrdU incorporation, individual studies
Description: 1. T47D cell Proliferation Assay
The objective of this assay is the determination of progestational and antiprogestational potency by using a cell proliferation assay in T47D cells. A compound's effect on DNA synthesis in T47D cells is measured.
DMEM:F12 (1:1) (GIBCO, BRL) supplemented with 10% (v/v) fetal bovine serum (not heat-inactivated), 100 U/ml penicillin, […], and 2 mM GlutaMax (GIBCO, BRL). b. Treatment medium: Minimum Essential
Medium (MEM) (#51200-038GIBCO, BRL) phenol red-free supplemented with 0.5% charcoal stripped fetal bovine serum, 100 U/ml penicillin, […] streptomycin, and 2 mM GlutaMax (GIBCO, BRL).
Stock T47 D cells are maintained in growth medium. For BrdU incorporation assay, cells are plated in 96-well plates (Falcon, Becton Dickinson Labware) at 10,000 cells/well in growth medium. […]
At the end of BrdU labeling, the medium is removed and BrdU incorporation is measured using a cell proliferation ELISA kit (#RPN 250, Amersham Life Science) according to manufacturer's instructions. […] Then 25 μl of 1 M sulfuric acid is added to each well to stop color reaction and optical density is read in a plate reader at 450 nm within 5 min.
Square root-transformed data are used for analysis of variance and nonlinear dose response curve fitting for both agonist and antagonist modes. […] EC50 or IC50 values are calculated from the retransformed values. […]

EC50 [nM]	Structure (SMILES)
0.019	CC(=O)O[C@]1(C(C)=O)CC[C@H]2[C@@H]3C[C@H](C)C4=CC(=O)CC[C@]4(C)[C@H]3CC[C@@]21C [MPA, medroxyprogesterone acetate]
